Experimental data published in patent US10913733B2, “Substituted piperidines thiazolyl acetamides as glycosidase inhibitors and uses thereof” (priority 2015, dated 2021).
Several values for one entry are separate records, joined by “and”; a condition that tells them apart may be missing. Equal entries are not always repeated.

Biological target: human O-GlcNAcase (Homo sapiens (Human), UniProt O60502)
Assay: Assay for determination of KI values for inhibition of O-GlcNAcase activity
Type: biochemical
Details: purified human O-GlcNAcase 0.7 nM; substrate 2 mM 4-Methylumbelliferyl N-acetyl-β-D-glucosaminide; pH 7.0; room temperature; Cheng-Prusoff; read-out: hOGA Ki
Method: Assay for Determination of KI Values for Inhibition of O-GlcNAcase Activity
Experimental procedure for kinetic analyses: Enzymatic reactions were carried out in a reaction containing 50 mM NaH2PO4, 100 mM NaCl and 0.1% BSA (pH 7.0) using 2 mM 4-Methylumbelliferyl N-acetyl-β-D-glucosaminide dihydrate (Sigma M2133) dissolved in ddH2O, as a substrate. The amount of purified human O-GlcNAcase enzyme used in the reaction was 0.7 nM. Test compound of varying concentrations was added to the enzyme prior to initiation of the reaction. The reaction was performed at room temperature in a 96-well plate and was initiated with the addition of substrate. The production of fluorescent product was measured every 60 sec for 45 min with a Tecan Infinite M200 plate-reader with excitation at 355 nm and emission detected at […], with 4-Methylumbelliferone (Sigma M1381) used to produce a standard curve. The slope of product production was determined for each concentration of compound tested and plotted, using standard curve fitting algorithms for sigmoidal dose response curves. The values for a four parameter logistic curve fit of the data were determined. KI values were determined using the Cheng-Prusoff equation; the Km of O-GlcNAcase for substrate was 0.2 mM.

Chain of human O-GlcNAcase (O60502 whole entry): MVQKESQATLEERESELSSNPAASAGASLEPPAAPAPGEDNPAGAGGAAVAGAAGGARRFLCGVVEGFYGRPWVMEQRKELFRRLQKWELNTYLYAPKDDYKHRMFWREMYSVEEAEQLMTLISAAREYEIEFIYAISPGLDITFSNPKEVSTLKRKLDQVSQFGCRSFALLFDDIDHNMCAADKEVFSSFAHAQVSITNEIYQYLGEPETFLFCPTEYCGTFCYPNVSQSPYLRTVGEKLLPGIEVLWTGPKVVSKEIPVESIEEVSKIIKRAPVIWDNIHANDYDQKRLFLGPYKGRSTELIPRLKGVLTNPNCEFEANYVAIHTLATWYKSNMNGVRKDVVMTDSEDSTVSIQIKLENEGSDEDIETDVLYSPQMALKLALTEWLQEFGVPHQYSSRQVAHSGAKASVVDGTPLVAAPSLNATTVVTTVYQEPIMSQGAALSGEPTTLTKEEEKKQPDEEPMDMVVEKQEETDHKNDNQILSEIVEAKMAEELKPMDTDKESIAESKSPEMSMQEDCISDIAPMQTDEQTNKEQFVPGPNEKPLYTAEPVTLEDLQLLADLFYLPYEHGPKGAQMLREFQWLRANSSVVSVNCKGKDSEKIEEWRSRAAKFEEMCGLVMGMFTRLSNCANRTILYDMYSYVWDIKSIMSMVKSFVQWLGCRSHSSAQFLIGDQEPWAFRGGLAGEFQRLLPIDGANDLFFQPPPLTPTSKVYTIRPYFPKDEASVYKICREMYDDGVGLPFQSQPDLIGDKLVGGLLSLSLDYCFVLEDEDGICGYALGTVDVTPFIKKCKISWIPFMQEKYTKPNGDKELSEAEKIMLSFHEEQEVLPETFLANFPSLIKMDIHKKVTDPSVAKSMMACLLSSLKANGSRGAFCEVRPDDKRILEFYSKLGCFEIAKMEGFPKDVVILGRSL

SMILES: CC(=O)Nc1ncc(CN2CCC(=Cc3ccc(CF)cc3)CC2)s1 [Example 26, N-(5-((4-(4-(fluoromethyl)benzylidene)piperidin-1-yl)methyl)thiazol-2-yl)acetamide]
- Ki: 0.167 nM and 0.0753 nM

SMILES: CC(=O)Nc1ncc(CN2CCC(=Cc3ccc([N+](=O)[O-])nc3)CC2)s1 [Example 49]
- Ki: 1.6 nM

SMILES: CC(=O)Nc1ncc(CN2CC/C(=C\c3ccc(F)nc3)C[C@H]2C)s1 [Example 53, (R,E)-N-(5-((4-((6-fluoropyridin-3-yl)methylene)-2-methylpiperidin-1-yl)methyl)thiazol-2-yl)acetamide]
- Ki: 123 nM

SMILES: CC(=O)Nc1ncc(CN2CC/C(=C\c3ccc(F)nc3)C[C@@H]2C)s1 [Example 54, (S,E)-N-(5-((4-((6-fluoropyridin-3-yl)methylene)-2-methylpiperidin-1-yl)methyl)thiazol-2-yl)acetamide]
- Ki: 11.8 nM

SMILES: COc1cccc(C=C2CCN(Cc3cnc(NC(C)=O)s3)CC2)c1OC [Example 16, N-[5-({4-[(2,3-dimethoxyphenyl)methylidene]piperidin-1-yl}methyl)-1,3-thiazol-2-yl]acetamide]
- Ki: 3.4 nM

SMILES: CC(=O)Nc1ncc(CN2CCC(=Cc3cccc(O)c3)CC2)s1 [Example 44, N-(5-((4-(3-hydroxybenzylidene)piperidin-1-yl)methyl)thiazol-2-yl)acetamide]
- Ki: 1.13 nM

SMILES: CC(=O)Nc1ncc(CN2CCC(=Cc3ccc4c(c3)OCO4)CC2)s1 [Example 19, N-(5-{[4-(1,3-benzodioxol-5-ylmethylidene)piperidin-1-yl]methyl}-1,3-thiazol-2-yl)acetamide]
- Ki: 1.03 nM

SMILES: COc1ccc(C=C2CCN(Cc3cnc(NC(C)=O)s3)CC2)cc1 [Example 46, N-[5-({4-[(4-methoxyphenyl)methylidene]piperidin-1-yl}methyl)-1,3-thiazol-2-yl]acetamide]
- Ki: 2 nM

SMILES: CC(=O)Nc1ncc(CN2CCC(=Cc3ccc(F)nc3)CC2)s1 [Example 2, N-(5-((4-((6-fluoropyridin-3-yl)methylene)piperidin-1-yl)methyl)thiazol-2-yl)acetamide]
- Ki: 2.08 nM

SMILES: CCOc1ccc(C=C2CCN(Cc3cnc(NC(C)=O)s3)CC2)cc1 [Example 14, N-(5-((4-(4-ethoxybenzylidene)piperidin-1-yl)methyl)thiazol-2-yl)acetamide]
- Ki: 1.45 nM

SMILES: COc1ccc(/C=C2/CCN(Cc3cnc(NC(C)=O)s3)[C@H](C)C2)cc1 [Example 40, (R,Z)-N-(5-((4-(4-methoxybenzylidene)-2-methylpiperidin-1-yl)methyl)thiazol-2-yl)acetamide]
- Ki: 71.2 nM

SMILES: COc1ccc(/C=C2\CCN(Cc3cnc(NC(C)=O)s3)[C@H](C)C2)cc1 [Example 39, (R,E)-N-(5-((4-(4-methoxybenzylidene)-2-methylpiperidin-1-yl)methyl)thiazol-2-yl)acetamide]
- Ki: 126 nM

SMILES: CC(=O)Nc1ncc(CN2CC/C(=C\c3ccccc3)C[C@@H]2C)s1 [Example 37, (S,E)-N-(5-((4-benzylidene-2-methylpiperidin-1-yl)methyl)thiazol-2-yl)acetamide]
- Ki: 29.8 nM

SMILES: COc1ccc(/C=C2/CCN(Cc3cnc(NC(C)=O)s3)[C@@H](C)C2)cc1 [Example 38, (S,Z)-N-(5-((4-(4-methoxybenzylidene)-2-methylpiperidin-1-yl)methyl)thiazol-2-yl)acetamide]
- Ki: 0.287 nM
